Usually MIC stands for the lowest concentration found to suppress growth. High values mean weaker potency, low ones greater potency.

Assay [1] deals with Candida albicans. The assay is described as follows: Antimicrobial activity against Candida albicans ATCC 76615. The format is functional.
Assay [2] deals with Candida parapsilosis. The experiment in a line: Antimicrobial activity against Candida parapsilosis isolates. Particulars: Lodderomyces parapsilosis.
Assay [3] deals with Nannizzia gypsea. The experiment in a line: Antimicrobial activity against Microsporum gypseum isolates. The format is functional.
Assay [4] concerns Fonsecaea compacta. The experiment in a line: Antimicrobial activity against Fonsecaea compacta isolates. The format is functional.
For assay [5], the system named is Cryptococcus neoformans. The experiment in a line: Antimicrobial activity against Cryptococcus neoformans ATCC 32609. The format is functional.
Assay [6] relates to Trichophyton rubrum. The experiment in a line: Antimicrobial activity against Trichophyton rubrum isolates. The format is functional.
The test system of assay [7] is Candida tropicalis. The assay is described as follows: Antimicrobial activity against Candida tropicalis isolates. The format is functional.
Assay [8] relates to Aspergillus fumigatus. The experiment in a line: Antimicrobial activity against Aspergillus fumigatus isolates. The format is functional.

Converted amounts (≈) assume the structure as drawn.

For the compound `CC(C)NCc1ccc(-c2ccc(OCC(O)(Cn3cncn3)c3ccc(F)cc3F)cc2)cc1` (stereo not given), the MIC in assay [1] came to 1 µg/mL (≈ 2.09 µM); in assay [2], 0.0625 µg/mL (≈ 0.131 µM); in assay [3] it was 1 µg/mL (≈ 2.09 µM); in assay [4] it was 4 µg/mL (≈ 8.36 µM); in assay [5], 16 µg/mL (≈ 33.4 µM); in assay [6], 0.25 µg/mL (≈ 0.522 µM). The MIC was 0.0625 µg/mL (≈ 0.131 µM) in assay [7] and above 64 µg/mL in assay [8].
With `CN(Cc1ccc(-c2ccc(OCC(O)(Cn3cncn3)c3ccc(F)cc3F)cc2)cc1)c1ccccc1` (stereo not given), the MIC in assay [1] is 1 µg/mL (≈ 1.9 µM); in assay [2], 1 µg/mL (≈ 1.9 µM); in assay [3] it was above 64 µg/mL; in assay [4], 16 µg/mL (≈ 30.4 µM); in assay [5], 1 µg/mL (≈ 1.9 µM); in assay [6], 16 µg/mL (≈ 30.4 µM). For the same compound, the MIC in assay [7] was 0.25 µg/mL (≈ 0.475 µM); in assay [8], above 64 µg/mL.
For the compound `Oc1ccc(CNc2ccc(-c3ccc(OCC(O)(Cn4cncn4)c4ccc(F)cc4F)cc3)cn2)cc1` (stereo not given), the MIC in assay [1] was 0.0625 µg/mL (≈ 0.118 µM); in assay [2], 0.0625 µg/mL (≈ 0.118 µM); in assay [3], 4 µg/mL (≈ 7.55 µM); in assay [4], 1 µg/mL (≈ 1.89 µM); in assay [5] it was above 64 µg/mL; in assay [6], above 64 µg/mL. Moreover, the minimum inhibitory concentration (MIC) was 0.0156 µg/mL (≈ 0.0295 µM) in assay [7] and above 64 µg/mL in assay [8].
For the compound `O=C(O)c1ccc(NCc2ccc(-c3ccc(OCC(O)(Cn4cncn4)c4ccc(F)cc4F)cc3)cc2)cc1` (stereo not given), the MIC in assay [1] was 0.0156 µg/mL (≈ 0.028 µM); in assay [2], 0.0625 µg/mL (≈ 0.112 µM); in assay [3], 1 µg/mL (≈ 1.8 µM); in assay [4], 1 µg/mL (≈ 1.8 µM); in assay [5], above 64 µg/mL; in assay [6] it was 0.25 µg/mL (≈ 0.449 µM). Besides, the figures for the MIC in assay [7] and in assay [8] were 0.0039 µg/mL (≈ 0.00701 µM) and 16 µg/mL (≈ 28.7 µM), respectively.
For `Cc1cccc(C(=O)Nc2ccc(-c3ccc(OCC(O)(Cn4cncn4)c4ccc(F)cc4F)cc3)cn2)c1` (stereo not given), the MIC in assay [1] is 0.25 µg/mL (≈ 0.462 µM); in assay [2] it was 0.25 µg/mL (≈ 0.462 µM); in assay [3] it was 1 µg/mL (≈ 1.85 µM); in assay [4], 1 µg/mL (≈ 1.85 µM); in assay [5], 0.25 µg/mL (≈ 0.462 µM); in assay [6], 1 µg/mL (≈ 1.85 µM). Moreover, the values for the MIC in assay [7] and in assay [8] were 0.25 µg/mL (≈ 0.462 µM) and 64 µg/mL (≈ 118 µM), respectively.
Consider `COc1ccc(C(=O)Nc2ccc(-c3ccc(OCC(O)(Cn4cncn4)c4ccc(F)cc4F)cc3)cn2)cc1` (stereo not given), for which the MIC stood at 0.0625 µg/mL (≈ 0.112 µM) in assay [1]; 0.25 µg/mL (≈ 0.448 µM) in assay [2]; 1 µg/mL (≈ 1.79 µM) in assay [3]; 0.25 µg/mL (≈ 0.448 µM) in assay [4]; 1 µg/mL (≈ 1.79 µM) in assay [5]; 0.25 µg/mL (≈ 0.448 µM) in assay [6]. For the same compound, the minimum inhibitory concentration (MIC) in assay [7] worked out at 0.25 µg/mL (≈ 0.448 µM); in assay [8], 64 µg/mL (≈ 115 µM).
As to `OCc1ccc(-c2ccc(OCC(O)(Cn3cncn3)c3ccc(F)cc3F)cc2)cc1` (stereo not given), the MIC in assay [1] was found to be 0.0156 µg/mL (≈ 0.0357 µM); in assay [2], 0.0625 µg/mL (≈ 0.143 µM); in assay [3], 1 µg/mL (≈ 2.29 µM); in assay [4], 16 µg/mL (≈ 36.6 µM); in assay [5], 1 µg/mL (≈ 2.29 µM); in assay [6], 1 µg/mL (≈ 2.29 µM). Moreover, the results for the MIC in assay [7] and in assay [8] were 0.0156 µg/mL (≈ 0.0357 µM) and above 64 µg/mL, respectively.
Turning to `CN(C)Cc1ccc(-c2ccc(OCC(O)(Cn3cncn3)c3ccc(F)cc3F)cc2)cc1` (stereo not given), the MIC in assay [1] stood at 0.25 µg/mL (≈ 0.538 µM); in assay [2], 0.25 µg/mL (≈ 0.538 µM); in assay [3] it was 1 µg/mL (≈ 2.15 µM); in assay [4], 4 µg/mL (≈ 8.61 µM); in assay [5], 4 µg/mL (≈ 8.61 µM); in assay [6], 0.0625 µg/mL (≈ 0.135 µM). Moreover, the results for the MIC in assay [7] and in assay [8] were 0.0625 µg/mL (≈ 0.135 µM) and 64 µg/mL (≈ 138 µM), respectively.
With `O=C(CN1CCCCC1)Nc1ccc(-c2ccc(OCC(O)(Cn3cncn3)c3ccc(F)cc3F)cc2)cn1` (stereo not given), the MIC in assay [1] worked out at 0.0625 µg/mL (≈ 0.114 µM); in assay [2] it was 0.0625 µg/mL (≈ 0.114 µM); in assay [3] it was 0.25 µg/mL (≈ 0.456 µM); in assay [4], 1 µg/mL (≈ 1.82 µM); in assay [5], 1 µg/mL (≈ 1.82 µM); in assay [6] it was 0.25 µg/mL (≈ 0.456 µM). Further, the MIC in assay [7] was 0.0156 µg/mL (≈ 0.0284 µM); in assay [8] it was above 64 µg/mL.
Turning to `CCNc1ccc(-c2ccc(OCC(O)(Cn3cncn3)c3ccc(F)cc3F)cc2)cn1` (stereo not given), the MIC in assay [1] is 0.0625 µg/mL (≈ 0.138 µM); in assay [2], 0.0625 µg/mL (≈ 0.138 µM); in assay [3] it was above 64 µg/mL; in assay [4], 1 µg/mL (≈ 2.21 µM); in assay [5], 16 µg/mL (≈ 35.4 µM); in assay [6], above 64 µg/mL. In addition, the results for the MIC in assay [7] and in assay [8] were 0.0625 µg/mL (≈ 0.138 µM) and above 64 µg/mL, respectively.
